# Results taken from US10106510B2, “Substituted isoxazoles for treating cancer” (EPIZYME, INC., priority 2014, dated 2018).
# Molecular target: SMYD3 (Homo sapiens (Human), UniProt Q9H7B4)
# Test: SMYD3 biochemical assay (SMYD3 enzyme assay on MEKK2 protein substrate, scintillation proximity assay)
# Details: 3H-SAM, SPA, IC50 values are an average of n = 1 to n = 50, read-out: SMYD3 Biochem IC50
# Text: S-adenosylmethionine (SAM), S-adenosylhomocysteine (SAH), Tris, Tween20, dimethylsulfoxide (DMSO), bovine skin gelatin (BSG), and Tris(2-carboxyethyl)phosphine hydrochloride solution (TCEP) were purchased from Sigma-Aldrich at the highest level of purity possible. ^3H-SAM was purchase from American Radiolabeled Chemicals with a specific activity of 80 Ci/mmol. 384-well opaque white OptiPlates and SPA beads (Perkin Elmer, catalog # RPNQ0013) were purchased from PerkinElmer.
# N-terminally GST-tagged MEKK2 (MAP3K2) protein corresponding to reference sequence AAF63496.3 was purchased from Life Technologies (catalog # PV4010). […] Protein identity was confirmed by MS/MS analysis after proteolytic digestion. The protein sequence used was:
# Full-length human SMYD3 isoform 1 (BAB86333) was inserted into a modified pET21b plasmid containing a His6 tag and TEV and SUMO cleavage sites. Because two common variants of SMYD3 exist in the population, site directed mutagenesis was subsequently performed to change amino acid 13 from an asparagine to a lysine, resulting in plasmid pEPZ533.
# E. coli (BL21 codonplus RIL strain, Stratagene) were transformed with plasmid pEPZ553 by mixing competent cells and plasmid DNA and incubating on ice for 30minutes followed by heat shock at 42° C. for 1 minute and cooling on ice for 2 minutes. Transformed cells were grown and selected on LB agar with 100 μg/mL ampicillin and 17 μg/mL chloramphenicol at 37° C. overnight. A single clone was used to inoculate 200 mL of LB medium with 100 μg/mL ampicillin and 17 μg/mL chloramphenicol and incubated at 37° C. on an orbital shaker at 180 rpm. Once in log growth, the culture was diluted 1:100 into 2 L of LB medium and grown until OD600 was about 0.3 after which the culture was incubated at 15° C. and 160 rpm. Once OD600 reached about 0.4, IPTG was added to a final concentration of 0.1 mM and the cells were grown overnight at 15° C. and 160 rpm. Cells were harvested by centrifugation at 8000 rpm, for 4 minutes at 4° C. and stored at −80° C. for purification.
# The column was washed with Buffer B (Buffer A plus 20 mM imidazole) and His-tagged SMYD3 was eluted with Buffer C (Buffer A plus 300 mM imidazole). The His tag, TEV and SUMO cleavage sites were removed generating native SMYD3 by addition of ULP1 protein at a ratio of 1:200 (ULP1:SMYD3). Imidazole was removed by dialysis overnight in Buffer A. The dialyzed solution was applied to a second Nickel column and the native SMYD3 protein was collected from the column flow-through. The flow-through was dialyzed in Buffer D (25 mM Tris, 5% glycerol, 5 mM β-mercaptoethanol, 50 mM NaCl, pH7.8) and ULP1 was removed using a Q sepharose fast flow column.
# General Procedure for SMYD3 Enzyme Assays on MEKK2 Protein Substrate
# The assays were all performed in a buffer consisting of 25 mM Tris-Cl pH 8.0, 1 mM TCEP, 0.005% BSG, and 0.005% Tween 20, prepared on the day of use. Compounds in 100% DMSO (1 ul) were spotted into a 384-well white opaque OptiPlate using a Bravo automated liquid handling platform outfitted with a 384-channel head (Agilent Technologies). DMSO (1 ul) was added to Columns 11, 12, 23, 24, rows A-H for the maximum signal control and 1 ul of SAH, a known product and inhibitor of SMYD3, was added to columns 11, 12, 23, 24, rows I-P for the minimum signal control. A cocktail (40 ul) containing the SMYD3 enzyme was added by Multidrop Combi (Thermo-Fisher). The compounds were allowed to incubate with SMYD3 for 30 min at room temperature, then a cocktail (10 ul) containing SAM and MEKK2 was added to initiate the reaction (final volume=51 ul).
# Sequence of SMYD3 (Q9H7B4 whole entry): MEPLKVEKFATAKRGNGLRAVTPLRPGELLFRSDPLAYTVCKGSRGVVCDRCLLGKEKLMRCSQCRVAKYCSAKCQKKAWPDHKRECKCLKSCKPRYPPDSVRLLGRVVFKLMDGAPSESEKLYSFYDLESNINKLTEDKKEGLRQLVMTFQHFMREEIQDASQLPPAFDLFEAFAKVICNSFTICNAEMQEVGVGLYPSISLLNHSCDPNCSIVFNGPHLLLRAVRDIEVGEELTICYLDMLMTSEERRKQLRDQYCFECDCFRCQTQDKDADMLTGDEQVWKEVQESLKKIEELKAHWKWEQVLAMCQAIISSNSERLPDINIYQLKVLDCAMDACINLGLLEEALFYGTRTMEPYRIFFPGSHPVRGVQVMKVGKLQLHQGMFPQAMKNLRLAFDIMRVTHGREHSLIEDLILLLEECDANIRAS
row,SMILES,IC50
1,"C[C@@H](N)CC(=O)N[C@H]1CC[C@@H](N(C)C(=O)c2cc(C3CC3)on2)CC1 [compound 55, N-((1S,4s)-4-((R)-3-aminobutanamido)cyclohexyl)-5-cyclopropyl-N-methylisoxazole-3-carboxamide]",24.4 µM
2,"COCCN(C(=O)c1cc(C2CC2)on1)[C@H]1CC[C@H](NC(=O)C[C@H](C)N)CC1 [compound 49, N-((1S,4r)-4-((S)-3-aminobutanamido)cyclohexyl)-5-cyclopropyl-N-(2-methoxyethyl)isoxazole-3-carboxamide]",19 µM
3,"CC(C)CN(C(=O)c1cc(C2CC2)on1)[C@H]1CC[C@H](NC(=O)C[C@H](C)N)CC1 [compound 48, N-((1S,4r)-4-((S)-3-aminobutanamido)cyclohexyl)-5-cyclopropyl-N-isobutylisoxazole-3-carboxamide]",3.8 µM
4,"CCS(=O)(=O)N[C@H]1CC[C@H](NC(=O)c2cc(C3CC3)on2)CC1 [compound 37, 5-cyclopropyl-N-((1r,4r)-4-(ethylsulfonamido)cyclohexyl)isoxazole-3-carboxamide]",6.36 µM
5,"NCCC(=O)N[C@H]1CC[C@H](N(Cc2ccccc2)C(=O)c2cc(C3CC3)on2)CC1 [compound 46, N-((1r,4r)-4-(3-aminopropanamido)cyclohexyl)-N-benzyl-5-cyclopropylisoxazole-3-carboxamide]",4.34 µM
6,"NCCS(=O)(=O)N[C@H]1CC[C@H](NC(=O)c2cc(C3CC3)on2)CC1 [compound 29, N-((1r,4r)-4-((2-aminoethyl)sulfonamido)cyclohexyl)-5-cyclopropylisoxazole-3-carboxamide]",2.9 µM
7,"O=C(CCN1CCOCC1)N[C@H]1CC[C@H](NC(=O)c2cc(C3CC3)on2)CC1 [compound 15, 5-cyclopropyl-N-((1r,4r)-4-(3-morpholino-propanamido)cyclohexyl) isoxazole-3-carboxamide]",20.4 µM
8,"CN1CCN(CCC(=O)N[C@H]2CC[C@H](NC(=O)c3cc(C4CC4)on3)CC2)CC1 [compound 10, 5-cyclopropyl-N-((1r,4r)-4-(3-(4-methylpiperazin-1-yl)propanamido)cyclohexyl)isoxazole-3-carboxamide]",7.72 µM
9,"NCCC(=O)N[C@H]1CC[C@H](N(CCc2ccccc2)C(=O)c2cc(C3CC3)on2)CC1 [compound 42, N-((1r,4r)-4-(3-aminopropanamido)cyclohexyl)-5-cyclopropyl-N-phenethylisoxazole-3-carboxamide]",10.8 µM

# Now those with a lower IC50, led by results:
row,IC50,SMILES
1,0.545 µM,"NC1CCC1C(=O)N[C@H]1CC[C@H](NC(=O)c2cc(C3CC3)on2)CC1 (stereo partly drawn) [Cpd. No. 3, N-((1r,4r)-4-(2-amino-cyclobutane-1-carboxamido)cyclo-hexyl)-5-cyclopropylisoxazole-3-carboxamide]"
2,1.2 µM,"NCCC(=O)N(CCCO)[C@H]1CC[C@H](NC(=O)c2cc(C3CC3)on2)CC1 [compound 38, N-((1r,4r)-4-(3-amino-N-(3-hydroxypropyl)propanamido)cyclohexyl)-5-cyclopropylisoxazole-3-carboxamide]"
3,0.475 µM,"NCCC(=O)N[C@H]1CC[C@H](NC(=O)c2cc(C3CC3)on2)CC1 [compound 4, N-((1r,4r)-4-(3-aminopropanamido)cyclohexyl)-5-cyclopropylisoxazole-3-carboxamide]"
4,0.511 µM,"N[C@@H]1CC[C@H](C(=O)N[C@H]2CC[C@H](NC(=O)c3cc(C4CC4)on3)CC2)C1 [compound 21, N-((1S,4r)-4-((1S,3R)-3-aminocyclopentane-1-carboxamido)cyclohexyl)-5-cyclopropylisoxazole-3-carboxamide]"
5,0.567 µM,"NCC(O)C(=O)N[C@H]1CC[C@H](NC(=O)c2cc(C3CC3)on2)CC1 (stereo partly drawn) [compound 27, N-((1r,4r)-4-(3-amino-2-hydroxypropanamido)cyclohexyl)-5-cyclopropylisoxazole-3-carboxamide]"
6,0.342 µM,"NCCCN[C@H]1CC[C@H](NC(=O)c2cc(C3CC3)on2)CC1 [compound 23, N-((1r,4r)-4-((3-aminopropyl)amino)cyclohexyl)-5-cyclopropylisoxazole-3-carboxamide]"
